We go through 15 compounds from US8629273B2, “Diazinylpyrazolyl compounds” (Bayer Intellectual Property GmbH, priority 2009, dated 2014).

Data set [1] in a line: logP by HPLC on reversed-phase columns (C 18), EU Guideline 79/831 Annex V.A8. The data set is classed as physicochemical. The conditions noted are these: pH 7.8, 0.001 molar aqueous ammonium bicarbonate and acetonitrile; for logP: ** LC-MS in the neutral range.
In another data set the test system is Boophilus microplus. The data set is described as follows: Boophilus microplus test (BOOPMI injection). The data set is classed as in vivo. As to conditions: 20 μg/animal, injected into the abdomen, after 7 days. How it is done:
Solvent: Dimethyl Sulphoxide To produce a suitable preparation of active compound, 10 mg of active compound are mixed with 0.5 ml of solvent, and the concentrate is diluted with water to the desired concentration. The active compound solution is injected into the abdomen (Boophilus microplus) and the animals are transferred into dishes and stored in a climatized room. The activity is monitored for deposition of fertile eggs. After 7 days, the activity in % is determined. 100% means that none of the ticks has laid fertile eggs.

For the next data set, the system named is adult Musca domestica. The data set is described as follows: Musca domestica test (MUSCDO). The conditions noted are these: treated sponge. It is filed as in vivo. On the procedure:
Solvent: Dimethyl sulphoxide To prepare a suitable preparation of active compound, 10 mg of active component are mixed with 0.5 ml of dimethyl sulphoxide, and the concentrate is diluted with water to the desired concentration. Vessels containing a sponge which had been treated with the active compound preparation of the desired concentration are populated with adult Musca domestica. After the desired period of time, the kill in % is determined. 100% means that all flies have been killed; 0% means that none of the flies have been killed.

Data set [2] has as its system larvae of the mustard beetle (Phaedon cochleariae). The experiment in a line: Phaedon test (PHAECO spray treatment). The data set is classed as in vivo. As to conditions: 100 g/ha, after 7 days. On the procedure:
(§1) Solvents: 78.0 parts by weight of acetone • • 1.5 parts by weight of dimethyl formamide Emulsifier: 0.5 part by weight of alkylaryl polyglycol ether To produce a suitable preparation of active compound, 1 part by weight of active compound is mixed with the stated amounts of solvent and emulsifier, and the concentrate is diluted with emulsifier-containing water to the desired concentration. Discs of Chinese cabbage leaves (Brassica pekinensis) are sprayed with an active compound preparation of the desired concentration and, after drying, populated with larvae of the mustard beetle (Phaedon cochleariae). After 7 days, the activity in % is determined. 100% means that all beetle larvae have been killed; 0% means that none of the beetle larvae have been killed. The test was carried out and evaluated as described in Example B.4.

Data set [3] deals with caterpillars of the army worm (Spodoptera frugiperda). The data set is described as follows: Spodoptera frugiperda test (SPODFR spray treatment). The data set is classed as in vivo. The conditions noted are these: 100 g/ha, after 7 days. How it is done: as §1, with “maize” for “Chinese cabbage”, “(Zea mays)” for “(Brassica pekinensis)”, “caterpillars” for “larvae”, “army worm (Spodoptera frugiperda).” for “mustard beetle (Phaedon cochleariae).”, “caterpillars” for “beetle larvae”, “B.5.” for “B.4.”

A further data set has as its system Ctenocephalides felis. The data set is described as follows: Ctenocephalides felis oral (CTECFE). The data set is classed as in vivo. The conditions noted are these: 100 ppm in citrated cattle blood, after 2 days. On the procedure:
Solvent: 1 part by weight of dimethyl sulphoxide To produce a suitable preparation of active compound, 10 mg of active compound are mixed with 0.5 ml of dimethyl sulphoxide. One part of the concentrate is diluted with citrated cattle blood, and the desired concentration is prepared. 20 unfed adult fleas (Ctenocephalides felis) are placed into a chamber whose top and bottom ends are closed with gauze. A metal cylinder whose bottom end is closed with parafilm is placed onto the chamber. The cylinder contains the blood/active compound preparation, which can be taken up by the fleas through the parafilm membrane. After 2 days, the kill in % is determined. 100% means that all fleas have been killed; 0% means that none of the fleas have been killed.

A further data set relates to Lucilia cuprina larvae. The experiment in a line: Lucilia cuprina test (LUCICU). It is filed as in vivo. The conditions noted are these: 100 ppm, treated horse meat, after 2 days. How it is done:
Solvent: Dimethyl Sulphoxide To produce a suitable preparation of active compound, 10 mg of active compound are mixed with 0.5 ml of dimethyl sulphoxide, and the concentrate is diluted with water to the desired concentration. Containers containing horse meat treated with the active compound preparation of the desired concentration are populated with Lucilia cuprina larvae. After 2 days, the kill in % is determined. 100% means that all larvae have been killed; 0% means that none of the larvae have been killed.

In data set [4] the test system is Boophilus microplus strain Parkhurst (SP-resistant). The experiment in a line: Boophilus microplus test (DIP). The data set is classed as in vivo. As to conditions: 100 ppm. On the procedure:
Test animals: adult fed females of the Boophilus microplus strain Parkhurst (SP-resistant)
Solvent: Dimethyl sulphoxide
10 mg of active compound are dissolved in 0.5 ml of dimethyl sulphoxide. To produce a suitable formulation, the active compound solution is diluted with water to the particular desired concentration. This active compound preparation is pipetted into tubes. 8-10 ticks are transferred into a further tube provided with holes. The tube is dipped into the active compound preparation, with all ticks being wetted completely. After the liquid has run off, the ticks are transferred to filter discs in plastic dishes and kept in a climatized room. After the desired period of time, the activity is checked for deposition of fertile eggs. Eggs whose fertility is not visible from the outside are kept in glass tubes in a climatized cupboard under the larvae have hatched. An activity of 100% means that no tick has laid fertile eggs.

In data set [1] (reversed-phase HPLC column (C 18), pH 7.8, ** LC-MS in the neutral range), `CC(C)O/C=N/c1c(-c2cc(Cl)cc(C(F)(F)F)c2)c(C(F)(F)F)nn1-c1ncccn1` [Example 1-13, isopropyl {4-[3-chloro-5-(trifluoromethyl)phenyl]-1-(pyrimidin-2-yl)-3-(trifluoromethyl)-1H-pyrazol-5-yl}imidoformate] had a chromatographic logP of 4.88. Moreover, in the data set on Boophilus microplus, the “activity (no deposition of fertile eggs)” value was found to be 100%. For the same compound, the kill is on record as 100% in the data set with adult Musca domestica (20 ppm), 95% in the data set on Ctenocephalides felis and 100% with Lucilia cuprina larvae. Moreover, in data set [2], the “activity (beetle larvae killed)” value was 100%. Further, the “activity (caterpillars killed)” value in data set [3] worked out at 100%.

With `FC(F)C(F)(F)c1nn(-c2ncccn2)c(N=Cc2ccccc2)c1-c1cc(Cl)cc(C(F)(F)F)c1` [Example 1-19], the logP in data set [1] is reported as 4.86**. Also, the “activity (no deposition of fertile eggs)” value in the data set on Boophilus microplus is 100%. Further, the kill in the data set with adult Musca domestica (100 ppm), in the data set with Ctenocephalides felis and in the data set on Lucilia cuprina larvae was 100% each time. The “activity (beetle larvae killed)” value in data set [2] came to 100%. Also, the “activity (caterpillars killed)” value in data set [3] was determined as 100%.

Consider `FC(F)C(F)(F)c1nn(-c2ncccn2)c(N=Cc2ccc(Cl)cc2)c1-c1cc(Cl)cc(C(F)(F)F)c1` [Example 1-20], for which, in data set [1], the logP is recorded as 5.37**. Besides, the “activity (no deposition of fertile eggs)” value with Boophilus microplus is reported as 100%. The kill is listed as 100% in the data set on adult Musca domestica (100 ppm), 95% in the data set on Ctenocephalides felis and 100% in the data set on Lucilia cuprina larvae. Besides, the “activity (beetle larvae killed)” value in data set [2] is on record as 100%. For the same compound, the “activity (caterpillars killed)” value in data set [3] was 100%.

In the case of `COc1ccc(C=Nc2c(-c3cc(Cl)c4c(c3)OCO4)c(C(F)(F)C(F)F)nn2-c2ncccn2)cc1` [Example 1-23], the logP in data set [1] was 3.85**. Moreover, the “activity (no deposition of fertile eggs)” value (in the data set on Boophilus microplus; in data set [4]) was 100% each time. Further, the “activity (beetle larvae killed)” value in data set [2] turned out to be 100%. The “activity (caterpillars killed)” value in data set [3] worked out at 100%. In addition, the kill in the data set with Ctenocephalides felis and in the data set with Lucilia cuprina larvae was 100% each time.

Consider `COc1ccc(C=Nc2c(-c3cc(Cl)c4c(c3)OCO4)c(C(F)(F)F)nn2-c2ncccn2)cc1` [Example 1-26], for which, in data set [1], the logP is given as 3.97**. The “activity (no deposition of fertile eggs)” value (in the data set on Boophilus microplus; in data set [4]) was 100% each time. Also, the “activity (beetle larvae killed)” value in data set [2] is recorded as 100%. Moreover, in data set [3], the “activity (caterpillars killed)” value came out at 100%. The kill with Ctenocephalides felis and in the data set on Lucilia cuprina larvae was 100% in each case.

For the compound `COc1cc(C=Nc2c(-c3cc(Cl)cc(C(F)(F)F)c3)c(C(F)(F)F)nn2-c2ncccn2)cc(OC)c1OC` [Example 1-28], the logP in data set [1] is reported as 4.85**. In the data set on Boophilus microplus, the “activity (no deposition of fertile eggs)” value was found to be 100%. Moreover, the figures for the kill in the data set with adult Musca domestica (100 ppm), in the data set with Ctenocephalides felis and in the data set with Lucilia cuprina larvae were 100%, 95% and 100%, respectively. In data set [2], the “activity (beetle larvae killed)” value was 100%. Also, the “activity (caterpillars killed)” value in data set [3] was determined as 83%.

`COc1cc(C=Nc2c(-c3cc(Cl)cc(C(F)(F)F)c3)c(C(F)(F)C(F)F)nn2-c2ncccn2)cc(OC)c1OC` [Example 1-29]: the logP in data set [1] is listed as 4.67**. Also, the “activity (no deposition of fertile eggs)” value with Boophilus microplus is on record as 100%. For the same compound, the kill with adult Musca domestica (100 ppm) is reported as 100%; in the data set with Ctenocephalides felis, 95%; in the data set with Lucilia cuprina larvae, 100%. For the same compound, the “activity (beetle larvae killed)” value in data set [2] was 100%. For the same compound, the “activity (caterpillars killed)” value in data set [3] was 100%.

Take `COc1cc(C=Nc2c(-c3cc(Cl)c4c(c3)OCO4)c(C(F)(F)C(F)F)nn2-c2ncccn2)cc(OC)c1OC` [Example 1-30]: the logP in data set [1] is 3.72**. For the same compound, the “activity (no deposition of fertile eggs)” value (in the data set on Boophilus microplus; in data set [4]) was 100% each time. For the same compound, the “activity (beetle larvae killed)” value in data set [2] came out at 100%. Moreover, the “activity (caterpillars killed)” value in data set [3] turned out to be 100%. In addition, the kill with Ctenocephalides felis and with Lucilia cuprina larvae was 100% in each case.

Turning to `CCOC=Nc1c(-c2cc(Cl)c3c(c2)OCO3)c(C(F)(F)F)nn1-c1ncccn1` [Example 1-33], the logP in data set [1] is 3.49**. The “activity (no deposition of fertile eggs)” value (in the data set on Boophilus microplus; in data set [4]) was 100% in each case. Moreover, in data set [2], the “activity (beetle larvae killed)” value stood at 100%. Also, in data set [3], the “activity (caterpillars killed)” value is recorded as 100%. In addition, the kill in the data set with Ctenocephalides felis and in the data set on Lucilia cuprina larvae was 100% each time.

For the compound `FC(F)(F)c1cc(Cl)cc(-c2c(C(F)(F)C(F)(F)F)nn(-c3ncccn3)c2N=Cc2ccccc2)c1` [Example 1-42], the logP in data set [1] is 5.46**. In the data set with Boophilus microplus, the “activity (no deposition of fertile eggs)” value is 100%. In addition, the values for the kill with adult Musca domestica (100 ppm), in the data set on Ctenocephalides felis and in the data set with Lucilia cuprina larvae were 100%, 95% and 100%, respectively. For the same compound, the “activity (beetle larvae killed)” value in data set [2] came out at 100%. Also, the “activity (caterpillars killed)” value in data set [3] was 100%.

In the case of `COc1nccnc1-n1nc(C(F)(F)F)c(-c2cc(Cl)c3c(c2)OCO3)c1N=Cc1ccccc1` [Example 2-6], the logP in data set [1] is 4.58**. In addition, the “activity (no deposition of fertile eggs)” value (in the data set with Boophilus microplus; in data set [4]) was 100% each time. In addition, the kill in the data set on Ctenocephalides felis and in the data set on Lucilia cuprina larvae was 100% throughout.

As for `COc1nccnc1-n1nc(C(F)(F)F)c(-c2cc(Cl)cc(C(F)(F)F)c2)c1N=Cc1ccc(Cl)cc1` [Example 2-7], in data set [1], the logP was 6.01**. For the same compound, the “activity (no deposition of fertile eggs)” value (in the data set with Boophilus microplus; in data set [4]) was 100% throughout. The results for the kill with adult Musca domestica (100 ppm), with Ctenocephalides felis and in the data set on Lucilia cuprina larvae were 90%, 90% and 100%, respectively.

In the case of `COc1ccc(C=Nc2c(-c3cc(Cl)cc(C(F)(F)F)c3)c(C(F)(F)F)nn2-c2nccnc2OC)cc1` [Example 2-8], the logP in data set [1] is 5.48**. Besides, the “activity (no deposition of fertile eggs)” value (with Boophilus microplus; in data set [4]) was 100% in each case. Moreover, the kill in the data set on Ctenocephalides felis was found to be 95%; in the data set on Lucilia cuprina larvae, 100%.

Turning to `COc1cc(C=Nc2c(-c3cc(Cl)cc(C(F)(F)F)c3)c(C(F)(F)F)nn2-c2nccnc2OC)cc(OC)c1OC` [Example 2-16], the logP in data set [1] is reported as 5.35**. Moreover, the “activity (no deposition of fertile eggs)” value (with Boophilus microplus; in data set [4]) was 100% each time. Further, the kill in the data set on adult Musca domestica (100 ppm) was found to be 90%; in the data set on Lucilia cuprina larvae, 100%.

In the case of `COc1cc(C=Nc2c(-c3cc(Cl)cc(C(F)(F)F)c3)c(C(F)(F)C(F)F)nn2-c2nccnc2OC)cc(OC)c1OC` [Example 2-17], in data set [1], the logP is 5.12**. For the same compound, the “activity (no deposition of fertile eggs)” value (in the data set on Boophilus microplus; in data set [4]) was 100% in each case. Also, the kill in the data set on adult Musca domestica (100 ppm) and with Lucilia cuprina larvae was 100% throughout.
